Measured values: patent US9783552B2, “Soluble guanylate cyclase activators” (MERCK SHARP & DOHME CORP., priority 2013, dated 2017)
One block for each molecule: values may come before it.

Tests used:
[1] = tested on: Spontaneously hypertensive rats (SHR); test: Acute Efficacy in Spontaneously Hypertensive Rats (SHR); assay type: in vivo, rat; details: single oral gavage
Source text: Acute Efficacy in Spontaneously Hypertensive Rats (SHR)
Spontaneously hypertensive rats (SHR, male, Charles River) were implanted with DSI TA 11PA-C40 telemetry device (Data Sciences, Inc., St. Paul, Minn.) under isoflurane or ketamine/metomidine anesthesia. The telemetry unit catheter was inserted into the descending aorta via the femoral artery and the telemetry device was implanted subcutaneously in the left flank area. Animals were allowed to recover from surgery for 14 days before the start of any studies. Blood pressure, heart rate, and activity signals from conscious, freely moving rats were recorded continuously for 30 seconds every 10 min. On the day prior to administration of compound, a single oral dose of vehicle (10% transcutol/20% Cremophor/70% water) was administered to all animals to establish baseline control data. The blood pressure lowering efficacy of compound (PO) or vehicle was evaluated following a single oral gavage. Data were collected as hourly averages, and changes in blood pressure were calculated by subtracting control baseline data on an hourly basis. Animals were maintained on normal diet with a 12 h light-dark cycle.
Maximum peak decreases of systolic blood pressure (SBP) in SHR at a particular P.O. dose (mpk milligrams per kilogram) for the following Example compounds are provided. Category A=SBP in SHRs<25 mmHg; Category B=SBP in SHRs 25-40 mmHg; Category C=SBP in SHRs>40 mmHg.

[2] = biological target: T1, sGC α1/β1 heterodimer (Homo sapiens, UniProt Q02108+Q02153); test: Cell-Based sGC Functional Assay (CASA Assay); details: CHO-K1/sGC cells; for EC50: intracellular cGMP by HTRF, 1 hr at 37° C., IP from 4P fit, presence or absence of 1 μM DETA-NO not given; for Emax: cGMP as percentage of maximum cGMP production of Compound A (=100% activation), read-out: % ACT (percent activation)
T1 construct: expressed in transfected cells
T1 sequence (Q02108 1-690): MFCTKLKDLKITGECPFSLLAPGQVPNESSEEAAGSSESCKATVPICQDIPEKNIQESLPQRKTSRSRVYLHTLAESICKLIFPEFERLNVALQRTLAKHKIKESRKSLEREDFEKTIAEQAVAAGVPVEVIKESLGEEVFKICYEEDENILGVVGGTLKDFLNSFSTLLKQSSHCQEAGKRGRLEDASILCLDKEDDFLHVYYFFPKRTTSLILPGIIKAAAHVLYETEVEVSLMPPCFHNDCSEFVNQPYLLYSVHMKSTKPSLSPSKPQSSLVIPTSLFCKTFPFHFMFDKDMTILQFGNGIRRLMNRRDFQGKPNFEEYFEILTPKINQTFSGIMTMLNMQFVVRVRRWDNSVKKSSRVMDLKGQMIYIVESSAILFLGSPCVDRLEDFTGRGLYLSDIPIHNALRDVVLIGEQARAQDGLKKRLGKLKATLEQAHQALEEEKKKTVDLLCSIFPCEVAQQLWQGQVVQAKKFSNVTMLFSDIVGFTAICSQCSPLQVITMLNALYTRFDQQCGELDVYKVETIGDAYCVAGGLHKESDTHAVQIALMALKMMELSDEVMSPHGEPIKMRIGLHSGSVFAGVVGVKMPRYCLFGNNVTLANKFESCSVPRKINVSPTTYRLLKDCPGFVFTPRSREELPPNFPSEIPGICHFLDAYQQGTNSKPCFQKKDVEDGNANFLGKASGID
T1 sequence (Q02153 1-619): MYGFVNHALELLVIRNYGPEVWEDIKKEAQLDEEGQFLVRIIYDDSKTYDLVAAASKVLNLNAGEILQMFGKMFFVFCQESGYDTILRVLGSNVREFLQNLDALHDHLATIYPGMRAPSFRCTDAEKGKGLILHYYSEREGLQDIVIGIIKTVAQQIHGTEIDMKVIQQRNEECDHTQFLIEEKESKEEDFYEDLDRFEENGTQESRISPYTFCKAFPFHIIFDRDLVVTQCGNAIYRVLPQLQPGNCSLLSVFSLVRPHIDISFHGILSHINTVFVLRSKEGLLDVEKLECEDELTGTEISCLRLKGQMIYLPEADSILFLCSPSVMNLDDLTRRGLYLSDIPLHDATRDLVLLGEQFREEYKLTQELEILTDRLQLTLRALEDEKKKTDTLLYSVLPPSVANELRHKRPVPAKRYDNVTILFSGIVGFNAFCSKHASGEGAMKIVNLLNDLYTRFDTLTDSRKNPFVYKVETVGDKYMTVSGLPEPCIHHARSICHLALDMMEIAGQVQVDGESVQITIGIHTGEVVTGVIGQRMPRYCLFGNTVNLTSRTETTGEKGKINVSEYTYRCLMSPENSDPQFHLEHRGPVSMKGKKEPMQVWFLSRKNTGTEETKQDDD
How it was run: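 cGMP accumulation was quantified by HTRF in stable human sGC α1/β1 CHO-K1 cells after 1 hr at 37 °C with compound, 0.5 mM IBMX and 2.5% DMSO. Runs were done in the presence and absence of 1 μM of the NO donor DETA-NO. Activation was normalised to the reference heme-dependent activator maximum (100%), and a 4P fit gave IP and maximum fold induction.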

SMILES: Cn1ncc2c(-c3nc(N)c4c(n3)NC(=O)C4(C)c3ccccc3)nc(CCC(F)(F)F)nc21 (single isomer, unassigned) [Example 4, 4-Amino-5-methyl-2-(1-methyl-6-(3,3,3-trifluoropropyl)-1H-pyrazolo[3,4-d]pyrimidin-4-yl)-5-phenyl-5H-pyrrolo[2,3-d]pyrimidin-6(7H)-one]
Maximum peak decrease of systolic blood pressure (SBP) in SHR, Category ([1]; Dose 3 mpk P.O.): C (Category C=SBP in SHRs>40 mmHg) | EC50 [2]: 130 nM | Emax [2]: 108%

SMILES: Cn1ccc2c(-c3nc(N)c4c(n3)NC(=O)C4(C)c3ccccc3)nc(CCC(F)(F)C(F)(F)F)nc21 (single isomer, unassigned) [Example 62, 4-Amino-5,7′-dimethyl-2′-(3,3,4,4,4-pentafluorobutyl)-5-phenyl-5H,7′H-[2,4′-bipyrrolo[2,3-d]pyrimidin]-6(7H)-one]
Maximum peak decrease of systolic blood pressure (SBP) in SHR, Category ([1]; Dose 1 mpk P.O.): A (Category A=SBP in SHRs<25 mmHg) | EC50 [2]: 19 nM | Emax [2]: 92%

SMILES: [2H]C([2H])([2H])n1ncc2c(-c3nc(N)c4c(n3)NC(=O)C4(CCCC)C3CC3)nc(CCC(F)(F)C(F)(F)F)nc21 (single isomer, unassigned) [Example 25, 4-Amino-5-butyl-5-cyclopropyl-2-(6-(3,3,4,4,4-pentafluorobutyl)-1-trideuteriomethyl-1H-pyrazolo[3,4-d]pyrimidin-4-yl)-5H-pyrrolo[2,3-d]pyrimidin-6(7H)-one]
EC50 [2]: 49 nM | Emax [2]: 80%

SMILES: Cn1ncc2c(-c3nc(N)c4c(n3)NC(=O)C4(C)C(=O)NC3CC3)nc(Cc3cccc(F)c3F)nc21 (single isomer, unassigned) [Example 40, 4-Amino-N-cyclopropyl-2-(6-(2,3-difluorobenzyl)-1-methyl-1H-pyrazolo[3,4-d]pyrimidin-4-yl)-5-methyl-6-oxo-6,7-dihydro-5H-pyrrolo[2,3-d]pyrimidine-5-carboxamide]
EC50 [2]: 55 nM | Emax [2]: 121%

SMILES: [2H]C([2H])([2H])n1ncc2c(-c3nc(N)c4c(n3)NC(=O)C4(C)C#C)nc(CCC(F)(F)C(F)(F)F)nc21 (single isomer, unassigned) [Example 22, 4-Amino-5-ethynyl-5-methyl-2-(6-(3,3,4,4,4-pentafluorobutyl)-1-trideuteriomethyl-1H-pyrazolo[3,4-d]pyrimidin-4-yl)-5H-pyrrolo[2,3-d]pyrimidin-6(7H)-one]
EC50 [2]: 46 nM | Emax [2]: 128%

Now from value to molecule, other results behind:

EC50 [2]: 1070 nM | Emax [2]: 114%
SMILES: [2H]C([2H])([2H])n1nnc2c(-c3nc(N)c4c(n3)NC(=O)C4(C)c3ccc(F)cc3)nc(CCC(F)(F)C(F)(F)F)nc21 (single isomer, unassigned) [Example 67, 4-Amino-5-(4-fluorophenyl)-5-methyl-2-(5-(3,3,4,4,4-pentafluorobutyl-3-trideuteriomethyl)-3H-[1,2,3]triazolo[4,5-d]pyrimidin-7-yl)-5H-pyrrolo[2,3-d]pyrimidin-6(7H)-one]
Maximum peak decrease of systolic blood pressure (SBP) in SHR, Category ([1]; Dose 1 mpk P.O.): A (Category A=SBP in SHRs<25 mmHg)

EC50 [2]: 594 nM | Emax [2]: 67%
SMILES: [2H]C([2H])([2H])n1nnc2c(-c3nc(N)c4c(n3)NC(=O)C4(C)c3ccc(OC)cc3)nc(CCC(F)(F)C(F)(F)F)nc21 (single isomer, unassigned) [Example 71, 4-Amino-5-(4-methoxyphenyl)-5-methyl-2-(5-(3,3,4,4,4-pentafluorobutyl-3-trideuteriomethyl)-3H-[1,2,3]triazolo[4,5-d]pyrimidin-7-yl)-5H-pyrrolo[2,3-d]pyrimidin-6(7H)-one]
Maximum peak decrease of systolic blood pressure (SBP) in SHR, Category ([1]; Dose 1 mpk P.O.): A (Category A=SBP in SHRs<25 mmHg)

EC50 [2]: 327 nM | Emax [2]: 95%
SMILES: [2H]C([2H])([2H])n1nnc2c(-c3nc(N)c4c(n3)NC(=O)C4(C)c3ccc(Cl)cc3)nc(CCC(F)(F)C(F)(F)F)nc21 (single isomer, unassigned) [Example 70, 4-Amino-5-(4-chlorophenyl)-5-methyl-2-(5-(3,3,4,4,4-pentafluorobutyl-3-trideuteriomethyl)-3H-[1,2,3]triazolo[4,5-d]pyrimidin-7-yl)-5H-pyrrolo[2,3-d]pyrimidin-6(7H)-one]
